Marks after values point to notes of the source that are not given here. Residues, ends and D or L forms follow the SMILES beside them.
Assay: Hematology of rats at the end of treatment
Format: in vivo, Sprague-Dawley rats
Conditions: median (IQR)

In the case of `CC[C@H](C)[C@@H]1NC(=O)[C@@H]2CSSC[C@H](NC(=O)[C@H](CCCNC(=N)N)NC(=O)[C@@H]3CSSC[C@H](NC1=O)C(=O)N[C@@H]([C@@H](C)O)C(=O)N[C@@H](CCCNC(=N)N)C(=O)NCC(=O)N[C@@H](Cc1ccccc1)C(=O)N3)C(=O)N[C@@H](CC(C)C)C(=O)N[C@H]1CSSC[C@H](NC(=O)[C@H](C(C)C)NC(=O)CNC(=O)[C@H](CCCNC(=N)N)NC(=O)[C@H](CCCNC(=N)N)NC1=O)C(=O)N[C@@H](CCCNC(=N)N)C(=O)N2` [RTD-1, Rhesus theta (θ) defensin-1] (HELM PEPTIDE1{G.F.C.R.C.L.C.R.R.G.V.C.R.C.I.C.T.R}$PEPTIDE1,PEPTIDE1,3:R3-16:R3|PEPTIDE1,PEPTIDE1,5:R3-14:R3|PEPTIDE1,PEPTIDE1,7:R3-12:R3|PEPTIDE1,PEPTIDE1,1:R1-18:R2$$$V2.0), the “Basophils, absolute” value (female, 5 mg/kg/day) is reported as 0.02 (0.02) 10^3/mm^3, the “Eosinophils, absolute” value (female, 5 mg/kg/day) is reported as 0.30 (0.23) 10^3/mm^3 and the HDW (female, 5 mg/kg/day) is reported as 2.37 (0.16) g/dL. For the same molecule, the Hematocrits (female, 5 mg/kg/day) was 40.50 (1.90) %, the Hemoglobin (female, 5 mg/kg/day) was 13.50 (1.00) g/dL and the “LUC, absolute” value (female, 5 mg/kg/day) was 0.02 (0.03) 10^3/mm^3. The “Lymphocytes, absolute” value (female, 5 mg/kg/day) was 4.78 (3.21) 10^3/mm^3, the MCH (female, 5 mg/kg/day) was 19.10 (1.00) pg and the MCHC (female, 5 mg/kg/day) was 33.40 (0.40) g/dL. The MCV (female, 5 mg/kg/day) was 57.90 (2.80) fL, the “Monocytes, absolute” value (female, 5 mg/kg/day) was 0.17 (0.08) 10^3/mm^3 and the “Neutrophils, absolute” value (female, 5 mg/kg/day) was 1.33 (0.99) 10^3/mm^3. The Platelets (female, 5 mg/kg/day) was 801.00 (306.00) 10^3/mm^3, the RBC (female, 5 mg/kg/day) was 6.88 (0.33) 10^6/mm^3 and the RDW (female, 5 mg/kg/day) was 12.70 (0.80) %. The “Reticulocytes, absolute” value (female, 5 mg/kg/day) was 256.70 (53.50) 10^3/mm^3, the WBC (female, 5 mg/kg/day) was 6.50 (3.50) 10^3/mm^3 and the “Basophils, absolute” value (female, 10 mg/kg/day) was 0.04 (0.02) 10^3/mm^3. For the same molecule, the “Eosinophils, absolute” value (female, 10 mg/kg/day) was 0.33 (0.14) 10^3/mm^3, the HDW (female, 10 mg/kg/day) was 2.45 (0.16) g/dL and the Hematocrits (female, 10 mg/kg/day) was 41.15 (1.83) %. The Hemoglobin (female, 10 mg/kg/day) was 13.70 (0.38) g/dL, the “LUC, absolute” value (female, 10 mg/kg/day) was 0.04 (0.03) 10^3/mm^3 and the “Lymphocytes, absolute” value (female, 10 mg/kg/day) was 7.13 (1.76)^c 10^3/mm^3. For the same molecule, the MCH (female, 10 mg/kg/day) was 18.95 (0.45) pg, the MCHC (female, 10 mg/kg/day) was 33.25 (0.35) g/dL and the MCV (female, 10 mg/kg/day) was 57.30 (2.43) fL. For the same molecule, the “Monocytes, absolute” value (female, 10 mg/kg/day) was 0.39 (0.13)^c^,^d 10^3/mm^3, the “Neutrophils, absolute” value (female, 10 mg/kg/day) was 2.18 (1.30) 10^3/mm^3 and the Platelets (female, 10 mg/kg/day) was 939.00 (314.75) 10^3/mm^3. The RBC (female, 10 mg/kg/day) was 7.21 (0.40) 10^6/mm^3, the RDW (female, 10 mg/kg/day) was 12.95 (0.40) % and the “Reticulocytes, absolute” value (female, 10 mg/kg/day) was 277.25 (42.00) 10^3/mm^3. For the same molecule, the WBC (female, 10 mg/kg/day) was 10.75 (3.68)^c 10^3/mm^3, the “Basophils, absolute” value (female, 20 mg/kg, day 2) was 0.06 (0.06) 10^3/mm^3 and the “Eosinophils, absolute” value (female, 20 mg/kg, day 2) was 0.13 (0.06)^c^,^e 10^3/mm^3. The HDW (female, 20 mg/kg, day 2) was 2.37 (0.32) g/dL, the Hematocrits (female, 20 mg/kg, day 2) was 46.85 (14.28) % and the Hemoglobin (female, 20 mg/kg, day 2) was 15.15 (4.58) g/dL. For the same molecule, the “LUC, absolute” value (female, 20 mg/kg, day 2) was 0.05 (0.03) 10^3/mm^3, the “Lymphocytes, absolute” value (female, 20 mg/kg, day 2) was 5.56 (2.93) 10^3/mm^3 and the MCH (female, 20 mg/kg, day 2) was 19.60 (0.88) pg. The MCHC (female, 20 mg/kg, day 2) was 32.30 (0.30)^d^,^e g/dL, the MCV (female, 20 mg/kg, day 2) was 60.95 (2.18)^e fL and the “Monocytes, absolute” value (female, 20 mg/kg, day 2) was 0.33 (0.26)^c 10^3/mm^3. The “Neutrophils, absolute” value (female, 20 mg/kg, day 2) was 2.55 (2.72) 10^3/mm^3, the Platelets (female, 20 mg/kg, day 2) was 603.50 (524.00)^e 10^3/mm^3 and the RBC (female, 20 mg/kg, day 2) was 7.63 (2.19) 10^6/mm^3. For the same molecule, the RDW (female, 20 mg/kg, day 2) was 12.20 (0.57)^e %, the “Reticulocytes, absolute” value (female, 20 mg/kg, day 2) was 325.95 (60.38)^c^,^d 10^3/mm^3 and the WBC (female, 20 mg/kg, day 2) was 8.15 (5.70) 10^3/mm^3. The “Basophils, absolute” value (male, 5 mg/kg/day) was 0.03 (0.02) 10^3/mm^3, the “Eosinophils, absolute” value (male, 5 mg/kg/day) was 0.37 (0.10) 10^3/mm^3 and the HDW (male, 5 mg/kg/day) was 2.30 (0.09) g/dL. The Hematocrits (male, 5 mg/kg/day) was 43.75 (1.73) %, the Hemoglobin (male, 5 mg/kg/day) was 14.10 (0.98) g/dL and the “LUC, absolute” value (male, 5 mg/kg/day) was 0.03 (0.02) 10^3/mm^3. For the same molecule, the “Lymphocytes, absolute” value (male, 5 mg/kg/day) was 6.03 (1.81) 10^3/mm^3, the MCH (male, 5 mg/kg/day) was 19.95 (1.35) pg and the MCHC (male, 5 mg/kg/day) was 32.10 (0.33) g/dL. For the same molecule, the MCV (male, 5 mg/kg/day) was 61.75 (2.90) fL, the “Monocytes, absolute” value (male, 5 mg/kg/day) was 0.22 (0.20) 10^3/mm^3 and the “Neutrophils, absolute” value (male, 5 mg/kg/day) was 2.04 (0.96) 10^3/mm^3. For the same molecule, the Platelets (male, 5 mg/kg/day) was 1,052.00 (145.00) 10^3/mm^3, the RBC (male, 5 mg/kg/day) was 7.06 (0.23) 10^6/mm^3 and the RDW (male, 5 mg/kg/day) was 13.95 (1.15) %. For the same molecule, the “Reticulocytes, absolute” value (male, 5 mg/kg/day) was 359.65 (38.03) 10^3/mm^3, the WBC (male, 5 mg/kg/day) was 8.40 (2.53) 10^3/mm^3 and the “Basophils, absolute” value (male, 10 mg/kg/day) was 0.03 (0.02) 10^3/mm^3. The “Eosinophils, absolute” value (male, 10 mg/kg/day) was 0.31 (0.24) 10^3/mm^3, the HDW (male, 10 mg/kg/day) was 2.20 (0.20) g/dL and the Hematocrits (male, 10 mg/kg/day) was 43.65 (1.20) %. For the same molecule, the Hemoglobin (male, 10 mg/kg/day) was 14.20 (0.65) g/dL, the “LUC, absolute” value (male, 10 mg/kg/day) was 0.03 (0.02) 10^3/mm^3 and the “Lymphocytes, absolute” value (male, 10 mg/kg/day) was 6.69 (2.92) 10^3/mm^3. The MCH (male, 10 mg/kg/day) was 20.20 (0.55) pg, the MCHC (male, 10 mg/kg/day) was 32.35 (0.72) g/dL and the MCV (male, 10 mg/kg/day) was 62.60 (3.05) fL. For the same molecule, the “Monocytes, absolute” value (male, 10 mg/kg/day) was 0.28 (0.10) 10^3/mm^3, the “Neutrophils, absolute” value (male, 10 mg/kg/day) was 1.85 (0.61) 10^3/mm^3 and the Platelets (male, 10 mg/kg/day) was 1,086.00 (192.25) 10^3/mm^3. The RBC (male, 10 mg/kg/day) was 7.06 (0.38) 10^6/mm^3, the RDW (male, 10 mg/kg/day) was 13.10 (1.13) % and the “Reticulocytes, absolute” value (male, 10 mg/kg/day) was 314.20 (33.35)^c 10^3/mm^3. The WBC (male, 10 mg/kg/day) was 10.05 (3.28) 10^3/mm^3, the “Basophils, absolute” value (male, 20 mg/kg, day 2) was 0.03 (0.03) 10^3/mm^3 and the “Eosinophils, absolute” value (male, 20 mg/kg, day 2) was 0.15 (0.06)^c^,^d^,^e 10^3/mm^3. For the same molecule, the HDW (male, 20 mg/kg, day 2) was 2.44 (0.25)^e g/dL, the Hematocrits (male, 20 mg/kg, day 2) was 37.30 (3.70)^d^,^e % and the Hemoglobin (male, 20 mg/kg, day 2) was 12.10 (1.00)^d^,^e g/dL. The “LUC, absolute” value (male, 20 mg/kg, day 2) was 0.07 (0.05)^c^,^d^,^e 10^3/mm^3, the “Lymphocytes, absolute” value (male, 20 mg/kg, day 2) was 4.24 (1.79)^d^,^e 10^3/mm^3 and the MCH (male, 20 mg/kg, day 2) was 20.00 (0.60) pg. The MCHC (male, 20 mg/kg, day 2) was 31.80 (0.50) g/dL, the MCV (male, 20 mg/kg, day 2) was 62.50 (2.10) fL and the “Monocytes, absolute” value (male, 20 mg/kg, day 2) was 0.93 (0.29)^c^,^d^,^e 10^3/mm^3. The “Neutrophils, absolute” value (male, 20 mg/kg, day 2) was 8.40 (3.42)^c^,^d^,^e 10^3/mm^3, the Platelets (male, 20 mg/kg, day 2) was 728.00 (86.00)^c^,^d^,^e 10^3/mm^3 and the RBC (male, 20 mg/kg, day 2) was 6.04 (0.47)^d^,^e 10^6/mm^3. For the same molecule, the RDW (male, 20 mg/kg, day 2) was 14.30 (1.20) %, the “Reticulocytes, absolute” value (male, 20 mg/kg, day 2) was 373.30 (106.50)^e 10^3/mm^3 and the WBC (male, 20 mg/kg, day 2) was 13.70 (4.90)^c^,^d 10^3/mm^3.

Reference: publication PMC8923172 (Antimicrobial Agents and Chemotherapy, 2022)
